Drawing on ChEMBL document CHEMBL1142360 (J Med Chem, 2008), this text covers logP, Activity and IC50 for three compounds.

A short description of data set [1]: Partition coefficient, log P of the compound. Type of data set: physicochemical. The conditions noted are these: octanol/water.
In data set [2] the test system is PC-3. Description: Antiproliferative activity against human PC3 cells at 10 uM after 5 days. The class given is functional.
The test system of data set [3] is PC-3. The data set is described as follows: Antiproliferative activity against human PC3 cells. Type of data set: functional, cell-based.

The logP is a log measure of how a compound divides between an organic and an aqueous phase. Low readings indicate a more hydrophilic compound, high ones a more lipophilic compound. As to `CC1(C)NC(=O)N(c2ccc([N+](=O)[O-])c(C(F)(F)F)c2)C1=O` [NILUTAMIDE], the log partition coefficient (logP) in data set [1] turned out to be 3.2. Also, the Activity in data set [2] came to 11%.

The IC50 is the concentration that gives 50% inhibition. A higher IC50 goes with a need for much substance. In the case of `COc1ccc(C2(c3ccc(C#N)c(C(F)(F)F)c3)NC(=O)N(c3ccc(C#N)c(C(F)(F)F)c3)C2=O)cc1` (configuration not stated), the half-maximal inhibitory concentration (IC50) in data set [3] turned out to be 5.6 µM. This compound also had a logP in data set [1] of 5.7. The Activity in data set [2] is 76%.

In data set [1], `C[C@](O)(CS(=O)(=O)c1ccc(F)cc1)C(=O)Nc1ccc(C#N)c(C(F)(F)F)c1` [(R)-BICALUTAMIDE] returned a logP of 3.4. This compound had an Activity in data set [2] of 15%.
